# Source: patent US20140080704A1, “SUBSTITUTED VINYL AND ALKINYL CYCLOHEXENOLS AS ACTIVE AGENTS AGAINST ABIOTIC STRESS IN PLANTS” (priority 2011, published 2014)
# Experiments:
# [1] = tested on: BRSNS (Brassica napus); test: Drought stress test on greenhouse crop plants, spray application, efficacy EF (BRSNS); assay type: in vivo; settings: dosage 25 g/ha, 600 l/ha water, mean of three results
# Protocol: (§1) Seeds of monocotyledonous and dicotyledonous crop plants were laid out in sandy loam in wood-fiber pots, covered with soil and cultivated in a greenhouse under good growth conditions. The test plants were treated at the early leaf stage (BBCH10-BBCH13). To ensure uniform water supply before commencement of stress, the potted plants were supplied with the maximum amount of water immediately beforehand by dam irrigation and, after application, transferred in plastic inserts in order to prevent subsequent, excessively rapid drying. The inventive compounds, formulated in the form of wettable powders (WP), wettable granules (WG), suspension concentrates (SC) or emulsion concentrates (EC), were sprayed onto the green parts of the plants as an aqueous suspension at an equivalent water application rate of 600 l/ha with addition of 0.2% wetting agent (agrotin). Substance application is followed immediately by stress treatment of the plants (cold or drought stress). For cold stress treatment, the plants were kept under the following controlled conditions: • “day”: 12 hours with illumination at 8° C. • “night”: 12 hours without illumination at 1° C. […] The intensity of damage was first assessed as a percentage (100%=plants have died, 0%=like control plants). […]
# [2] = tested on: ZEAMX (Zea mays); test: Drought stress test on greenhouse crop plants, spray application, efficacy EF (ZEAMX); assay type: in vivo; settings: dosage 25 g/ha, 600 l/ha water, mean of three results
# Protocol: as §1
smiles,measurement,setting,value
"CC1=CC(=O)C2CC2(C)C1(O)C#CC1=CC(=O)OC1 (centres unmarked) [I.4-54, 4-[(2-hydroxy-1,3-dimethyl-5-oxobicyclo[4.1.0]hept-3-en-2-yl)ethynyl]furan-2(5H)-one]",EF (BRSNS): efficacy = percentage reduction in the intensity of damage,[1],>5%
same,EF (ZEAMX): efficacy = percentage reduction in the intensity of damage,[2],>5%
